The structures appear in SMILES notation.

T1 sequence (Q8XPM9 30-476 limits assumed): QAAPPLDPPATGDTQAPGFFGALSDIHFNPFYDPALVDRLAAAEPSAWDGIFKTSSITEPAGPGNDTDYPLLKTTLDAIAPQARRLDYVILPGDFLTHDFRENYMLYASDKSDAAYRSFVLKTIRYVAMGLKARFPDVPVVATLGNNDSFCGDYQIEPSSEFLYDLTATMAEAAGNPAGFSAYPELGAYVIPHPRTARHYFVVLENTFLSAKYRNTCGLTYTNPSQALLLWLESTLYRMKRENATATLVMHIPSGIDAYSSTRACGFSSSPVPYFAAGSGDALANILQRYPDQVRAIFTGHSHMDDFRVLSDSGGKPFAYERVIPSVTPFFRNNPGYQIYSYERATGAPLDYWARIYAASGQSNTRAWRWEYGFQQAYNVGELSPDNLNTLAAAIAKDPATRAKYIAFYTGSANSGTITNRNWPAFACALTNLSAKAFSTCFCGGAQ

This test concerns the target T1, RsASML (Ralstonia pseudosolanacearum, UniProt Q8XPM9).
T1 construct: gene RSp1609
Put plainly: biochemical.
As a reminder, the IC50 is the point on the concentration scale where inhibition reaches its midpoint. `Nc1ncnc2c1ncn2[C@@H]1O[C@H](COP(=O)(O)OP(=O)(O)O)[C@@H](O)[C@H]1O` [ADP] showed an IC50 of 0.0705 µM.

`Nc1ncnc2c1ncn2[C@@H]1O[C@H](COP(=O)(O)O)[C@@H](O)[C@H]1O` [AMP]: the midpoint of inhibition, the IC50, lay at 0.075 µM.

As for `Nc1ncnc2c1ncn2[C@@H]1O[C@H](COP(=O)(O)OP(=O)(O)OP(=O)(O)O)[C@@H](O)[C@H]1O` [ATP], the IC50 is 0.0586 µM.

For the molecule `Nc1ncnc2c1ncn2[C@@H]1O[C@H](CO)[C@@H](O)[C@H]1O` [Adenosine], half-maximal inhibition (IC50) required 243 µM.

Consider `Nc1ccn([C@@H]2O[C@H](COP(=O)(O)OP(=O)(O)OP(=O)(O)O)[C@@H](O)[C@H]2O)c(=O)n1` [CTP], for which 1500 µM corresponded to half-maximal inhibition (IC50).

`Nc1nc2c(ncn2[C@@H]2O[C@H](COP(=O)(O)OP(=O)(O)OP(=O)(O)O)[C@@H](O)[C@H]2O)c(=O)[nH]1` [GTP]: the IC50 came to 44.2 µM.

`O=P(O)(O)OC[C@H](O)CO` [L-α-glycerolphosphate]: 746 µM corresponded to half-maximal inhibition (IC50).

In turn, `C[N+](C)(C)CCOP(=O)([O-])OC[C@H](O)CO` [L-α-glycerolphosphocholine] yielded a 50% inhibitory concentration (IC50) of 64.6 µM.

`NC(=O)c1ccc[n+]([C@@H]2O[C@H](COP(=O)(O)OP(=O)(O)OC[C@H]3O[C@@H](n4cnc5c(N)ncnc54)[C@H](O)[C@@H]3O)[C@@H](O)[C@H]2O)c1` [NAD^+] came in with an IC50 of 0.0663 µM.

In turn, `O=P(O)(O)O` [Phosphate] returned an IC50 of 265 µM.

The molecule `C[N+](C)(C)CCOP(=O)([O-])O` [Phosphocholine] returned an IC50 of 4430 µM.

`Cc1cn([C@H]2C[C@H](O)[C@@H](COP(=O)(O)O)O2)c(=O)[nH]c1=O` [TMP] registered an IC50 of 35.9 µM.

Consider `Cc1cn([C@H]2C[C@H](O)[C@@H](COP(=O)(O)OP(=O)(O)OP(=O)(O)O)O2)c(=O)[nH]c1=O` [TTP], for which 201 µM corresponded to half-maximal inhibition (IC50).

On to `O=c1ccn([C@@H]2O[C@H](COP(=O)(O)OP(=O)(O)OP(=O)(O)O)[C@@H](O)[C@H]2O)c(=O)[nH]1` [UTP], for which the half-inhibitory concentration (IC50) was 1360 µM.

Molecule `NC(=O)C1=CN([C@@H]2O[C@H](COP(=O)(O)OP(=O)(O)OC[C@H]3O[C@@H](n4cnc5c(N)ncnc54)[C@H](OP(=O)(O)O)[C@@H]3O)[C@@H](O)[C@H]2O)C=CC1` [β-NADPH] yielded a 50% inhibitory concentration (IC50) of 52.1 µM.
